Experimental findings from patent US12582727B2, “Chemiluminescent and fluorescent nanoparticle for optical imaging of cancer” (priority 2018, dated 2026) are described below.

Data set [1] has as its system NOK (Normal oral keratinocyte). The data set can be described thus: Cellular uptake, NOK cells (FRα-negative). To be noted: 1 and 3 hours of incubation, comparison among samples. It is filed as cell-based. Here is the method:
The cell internalization of CNPs was characterized by a fluorescence microscopy. As shown in FIGS. 14A and 14B, the CNPs quickly enter into NOK and MOC2 cells. […] Through the cellular uptake study, it was confirmed that CNPs efficiently enter into the cells within 1 hour.
To evaluate the cellular uptake, NOK (Normal oral keratinocyte) and MOC2 (immunogenic murine squamous cell carcinoma) cells were used as folate receptor alpha (FRα)-negative and -positive cells, respectively (FIGS. 15A and 15B).
For visualization of the cellular uptake, the NOK and MOC2 cells in each well were treated with free-Ce6, GCCe6, FA-GCCe6, CNP and FA-CNP and then subjected to DAPI staining. […] The fluorescence images matched to the corresponding data in FIGS. 15A and 15B. The enhancement of the cellular uptake is attributed to the presence of FA facilitating receptor-mediated endocytosis.

The test system of data set [2] is liver, lungs, kidney, heart, and spleen. As to the kind of experiment: Histology (H&E) of internal organs for toxicity. It counts as in vivo. The conditions noted are these: compared to control (non-treated) group, 2 days post-intravenous injection. Here is the method: After euthanizing mice with carbon dioxide gas, the internal organs (liver, kidney, spleen, heart, and lung) and tumor tissue were extracted and photographed using IVIS imaging. In addition, tumor tissues were excised from the mice at 2 days post-intravenous injection of free-Ce6, GCCe6, FA-GCCe6, CNP and FA-CNP (0.1 mL equivalent Ce6 concentration of 1.34×10^−5 mol/kg body weight) fixed with 10% Neutral Buffered Formalin solution, and embedded in paraffin, followed by sectioning. The sliced internal organs (5 μm in thickness) were stained with hematoxylin and eosin (H&E) and observed under an optical microscope. In addition, sliced tumor tissues were determined their FL and CL imaging under a confocal laser scanning microscope (Zeusis Nikon, Tokyo, Japan).

For the substance chlorin e6 [free-Ce6], the cellular uptake amount result in data set [1] is reported as “no significant difference”. In addition, the “toxicity in H&E stained internal organs” value in data set [2] was “no significant cellular toxicity”.
